For 15 molecules, IC50 results are on record in patent US20240262842A1, “SMALL MOLECULE INHIBITORS OF KRAS G12C MUTANT” (Merck Sharp & Dohme LLC, priority 2021, published 2024).

Where two headings read alike, the source gives them in different places.

As a reminder, the IC50 is the concentration that inhibits the measured activity by half.

In one assay the test system is MIA PaCa-2 cells. Put plainly: Growth inhibition activity on KRAS-G12C mutant cell line (CellTiter-Glo 3D). Type of assay: cell-based, human. The note with it: MIA PaCa-2, 3-day culture with compound. On the procedure: MIA PaCa-2 cells (given by Sumitomo Dainippon Pharma Co., Ltd.), which are a KRAS-G12C mutant human pancreas cancer cell line, were suspended in a 10% fetal bovine serum-containing RPMI1640 medium (manufactured by Fujifilm Wako Pure Chemical Corporation). The cell suspension was seeded into each well of a 384-well U bottom microplate and cultured in an incubator containing 5% CO2 gas at 37° C. for 1 day. The compounds obtained in the “Preparation of Compounds” section were used as test compounds and were dissolved in DMSO, respectively, and each test compound was diluted with DMSO to give a concentration 500 times the final concentration. The resultant solution of the test compound in DMSO was diluted with the medium used for suspending cells and added to each well of the cell-culture plate to give a DMSO final concentration of 0.2%, followed by culture in an incubator containing 5% CO2 gas at 37° C. for another 3 days. The cell count after 3-day culture in the presence of the test compound was measured using CellTiter-Glo 3D Reagent (manufactured by Promega Corporation). All wells were added with CellTiter-Glo 3D Reagent and mixed for 10 minutes. 30 minutes after mixing, luminescence was measured by a plate reader. The growth inhibition rate was calculated from the following equation, and the concentration of the test compound at which 50% inhibition was achieved (IC50 (nM)) was determined.
[formula] • T: the emission intensity in a well into which a test compound was added. • C: the emission intensity in a well into which a test compound was not added.

The target of assay [1] is T1, interaction between GMPPNP-bound recombinant K-Ras4B G12C mutant protein and cRAF RAS-binding domain (cRAF-RBD) (Homo sapiens, UniProt P01116, G12C).
T1 construct: His-tag (N)
In words: Inhibitory activity on interaction between KRAS G12C and cRAF (Alpha technology). As to the method:
Interaction between recombinant K-Ras4B G12C mutant protein (amino acids 1-169, SEQ ID NO:2) and cRAF RAS-binding domain (cRAF-RBD, amino acids 50-132, Jena Biosciences GmbH) was measured using Alpha technology (PerkinElmer Inc.).
Recombinant KRAS G12C protein with an N-terminal His-tag was expressed in E. coli and purified by affinity chromatography. To prepare GTP-bound form and GDP-bound form of KRAS G12C protein, 50 μM KRAS G12C protein was incubated with 1 mM GMPPNP (Guanosine-5′-[(β,γ)-imido]triphosphate, Tetralithium salt) (Jena Bioscience GmbH) and 1 mM GDP, respectively, in a loading buffer (20 mM Tris-HCl (pH 7.5), 50 mM NaCl, 1 mM DTT and 2.5 mM EDTA) for 1 hour on ice. After the incubation, MgCl2 was added to a final concentration of 10 mM, followed by incubation at room temperature for 30 minutes. The mixture was allowed to pass through a NAP-5 column to remove free nucleotides and purified, and the resultant nucleotide-bound KRAS G12C protein was used for compound evaluation.
For the measurement of the inhibitory activity of compounds on interaction between KRAS G12C and cRAF-RBD, GMPPNP-bound KRAS G12C protein was incubated with various concentrations of compound in a reaction buffer (20 mM Tris-HCl (pH 7.5), 100 mM NaCl, 1 mM MgCl2, 1 mM TCEP, 0.1% Tween 20) at 25° C. for 1 hour. After the incubation, recombinant cRAF-RBD and Alpha detection reagents were added and incubated at room temperature for 1.5 hours for binding. Interaction of KRAS G12C and cRAF-RBD was monitored by measuring Alpha signal. Inhibition % was calculated using the signal from the reaction without test compound (DMSO control) as 0% inhibition and the signal from the reaction using GDP-bound KRAS G12C in place of GMPPNP-bound KRAS G12C as 100% inhibition. IC50 values were calculated from dose titration curve using curve fitting by XLfit software (IDBS).

The mark [2] stands for this setting: Homo sapiens, MIA PaCa-2, 72 h, Table 3-1.
The mark [3] stands for this setting: GMPPNP-bound KRAS G12C incubated with compound 25° C. 1 hour, Table 2-1, read-out: IC50.
The mark [4] stands for this setting: GMPPNP-bound KRAS G12C incubated with compound 25° C. 1 hour, Table 2, read-out: IC50.

T1 sequence (P01116 with tags, fused parts or gaps isoform P01116-2 G12C): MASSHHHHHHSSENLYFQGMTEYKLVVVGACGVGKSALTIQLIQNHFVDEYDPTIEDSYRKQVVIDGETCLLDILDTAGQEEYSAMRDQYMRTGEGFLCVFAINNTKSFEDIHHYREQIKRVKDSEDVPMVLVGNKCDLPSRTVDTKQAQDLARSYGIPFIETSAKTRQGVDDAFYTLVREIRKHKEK

With `CN1CCc2cc(C(=O)c3cc(F)c(NC(=O)/C=C/CNCC(C)(C)O)c(F)c3)n3cccc(c23)-c2c(C(F)(F)F)cc3c(ncn3C)c21` [Example 112, (E)-N-(4-(9,12-dimethyl-7-(trifluoromethyl)-9,12,13,14-tetrahydro-imidazo[4″,5″:5′,6′]benzo-[1′,2′:2,3]azocino[4,5,6-hi]indolizine-2-carbonyl)-2,6-difluorophenyl)-4-((2-hydroxy-2-methylpropyl)-amino)but-2-enamide], the IC50 is 0.0101 µM in the assay on MIA PaCa-2 cells (setting [2]) and 0.0292 µM in assay [1] (setting [3]).
On to `CO[C@H]1CC[C@H](NC/C=C/C(=O)Nc2c(F)cc(C(=O)c3cn4c5c(cccc35)-c3c(cc(N5CCCC5=O)cc3C(F)(F)F)OCC4)cc2F)CC1` (single isomer, unassigned) [Example 5-1, (E)-N-(2,6-difluoro-4-(8-(2-oxopyrrolidin-1-yl)-10-(trifluoromethyl)-4,5-dihydrobenzo[7,8][1.4]oxazocino[6,5,4-hi]indole-1-carbonyl)phenyl)-4-(((1r,4t)-4-methoxycyclohexyl)amino)but-2-enamide], for which the IC50 with MIA PaCa-2 cells (Table 3) was 0.014 µM; in assay [1] (IC50, GMPPNP-bound KRAS G12C incubated with compound 25° C. 1 hour, Table 2), 0.053 µM.
As for `COCc1nc2c3c(c(C(F)(F)F)cc2n1C)-c1cccn2c(C(=O)c4cc(F)c(NC(=O)/C=C/CN[C@H]5CCOC5)c(F)c4)cc(c12)C(=O)N(C)C3` [Example 158, (S,E)-N-(2,6-difluoro-4-(10-(methoxymethyl)-9,13-dimethyl-14-oxo-7-(trifluoromethyl)-9,12,13,14-tetrahydroimidazo[4″,5″:3′,4′]benzo[1′,2′:6,7]azocino[5,4,3-hi]indolizine-2-carbonyl)phenyl)-4-((tetrahydrofuran-3-yl)amino)but-2-enamide], the IC50 with MIA PaCa-2 cells (setting [2]) was 0.0954 µM; in assay [1] (setting [3]), 0.0776 µM.
For `CN1CCc2cc(C(=O)c3cc(F)c(NC(=O)/C=C/CN4CCCC4)c(F)c3)n3cccc(c23)-c2c(C(F)(F)F)cc3c(ncn3C)c21` [Example 226, (E)-N-(4-(9,12-dimethyl-7-(trifluoromethyl)-9,12,13,14-tetrahydro-imidazo[4″,5″:5′,6′]benzo-[1′,2′:2,3]azocino[4,5,6-hi]indolizine-2-carbonyl)-2,6-difluorophenyl)-4-(pyrrolidin-1-yl)but-2-enamide], in that order: 0.0135 µM and 0.0633 µM.
For `CN1CCc2cc(C(=O)c3cc(F)c(NC(=O)/C=C/CNC4(C)COC4)c(F)c3)n3cccc(c23)-c2c(C(F)(F)F)cc3c(ncn3C3CC3)c21` (single isomer, unassigned) [Example 153, (E)-N-(4-(9-cyclopropyl-12-methyl-7-(trifluoro-methyl)-9,12,13,14-tetra-hydroimidazo[4″,5″:5′,6′]-benzo[1′,2′:2,3]azocino-[4,5,6-hi]indolizine-2-carbonyl)-2,6-difluoro-phenyl)-4-((3-methyloxe-tan-3-yl)amino)but-2-enamide], in that order: 0.118 µM and 0.0315 µM.
Regarding `Cc1nc2c3c(c(C(F)(F)F)cc2n1C)-c1cccn2c(C(=O)c4cc(F)c(NC(=O)/C=C/CNC(C)(C)C)c(F)c4)cc(c12)CCO3` [Example 33], the IC50 with MIA PaCa-2 cells (Homo sapiens, MIA PaCa-2, 72 h, Table 3) came out at 0.005 µM; in assay [1] (setting [4]) it was 0.014 µM.
Take `CO[C@H]1CC[C@H](NC/C=C/C(=O)Nc2c(F)cc(C(=O)c3cc4c5c(cccn35)-c3c(C)cc5c(nc(C)n5C)c3N(C)CC4)cc2F)CC1` (single isomer, unassigned) [Example 69, (E)-N-(2,6-difluoro-4-(7,9,10,12-tetramethyl-9,12,13,14-tetrahydro-imidazo[4″,5″:5′,6′]benzo-[1′,2′:2,3]azocino[4,5,6-hi]indolizine-2-carbonyl)-phenyl)-4-(((1r,4r)-4-methoxycyclohexyl)-amino)but-2-enamide]: the figures for the IC50 (in the assay with MIA PaCa-2 cells (setting [2]); in assay [1] (setting [3])) were 0.0155 µM and 0.0198 µM, respectively.
`CO[C@H]1CC[C@H](NC/C=C/C(=O)Nc2c(F)cc(C(=O)c3cc4c5c(cccn35)-c3c(C(F)(F)F)cc5c(nc(C)n5C)c3N(C)CC4)cc2F)CC1` (single isomer, unassigned) [Example 63, (E)-N-(2,6-difluoro-4-(9,10,12-trimethyl-7-(tri-fluoromethyl)-9,12,13,14-tetrahydroimidazo-[4″,5″:5′,6′]benzo[1′,2′: 2,3]azocino[4,5,6-hi]-indolizine-2-carbonyl)-phenyl)-4-(((1r,4r)-4-methoxycyclohexyl)-amino)but-2-enamide]: the values for the IC50 (with MIA PaCa-2 cells (setting [2]); in assay [1] (setting [3])) were 0.00248 µM and 0.0142 µM, respectively.
With `CO[C@H]1CC[C@H](NC/C=C/C(=O)Nc2ccc(C(=O)c3cc4c5c(cccn35)-c3c(C(F)(F)F)cc5c(nc(C)n5C)c3OCC4)cc2F)CC1` [Example 67, (E)-N-(4-(9,10-dimethyl-7-(trifluoromethyl)-13,14-dihydro-9H-imidazo-[4″,5″:5′,6′]benzo[1′,2′: 2,3]oxocino[4,5,6-hi]-indolizine-2-carbonyl)-2-fluorophenyl)-4-(((1r,4r)-4-methoxycyclohexyl)-amino)but-2-enamide], the IC50 in the assay on MIA PaCa-2 cells (setting [2]) was determined as 0.00822 µM; in assay [1] (setting [3]), 0.022 µM.
`Cc1nc2c3c(c(C(F)(F)F)cc2n1C)-c1cccn2c(C(=O)c4cc(F)c(NC(=O)/C=C/CNC5(C)COC5)c(F)c4)cc(c12)CCO3` (single isomer, unassigned) [Example 31-1, (E)-N-(4-(9,10-dimethyl-7-(trifluoromethyl)-13,14-dihydro-9H-imidazo[4″,5″:5′,6′]benzo[1′,2′:2,3]oxocino[4,5,6-hi]indolizine-2-carbonyl)-2,6-difluorophenyl)-4-((3-methyloxetan-3-yl)amino)but-2-enamide]: the IC50 worked out at 0.007 µM with MIA PaCa-2 cells (Table 3) and 0.011 µM in assay [1] (setting [4]).
As to `COCc1nc2c3c(c(C(F)(F)F)cc2n1C)-c1cccn2c(C(=O)c4cc(F)c(NC(=O)/C=C/CN[C@H]5CCOC5)c(F)c4)cc(c12)CCN3C` (single isomer, unassigned) [Example 98], the IC50 in the assay with MIA PaCa-2 cells (setting [2]) was 0.00394 µM; in assay [1] (setting [3]), 0.0111 µM.
With `COc1cc2c(nc(C)n2C)c2c1-c1cccn3c(C(=O)c4cc(F)c(NC(=O)/C=C/CNC5(C)CC5)c(F)c4)cc(c13)CCN2C` (single isomer, unassigned) [Example 140, (E)-N-(2,6-difluoro-4-(7-methoxy-9,10,12-trimethyl-9,12,13,14-tetrahydroimidazo[4″,5″:5′,6′]benzo[1′,2′:2,3]azocino[4,5,6-hi]indolizine-2-carbonyl)phenyl)-4-((1-methylcyclopropyl)amino)but-2-enamide], the IC50 was found to be 0.00759 µM in the assay with MIA PaCa-2 cells (setting [2]) and 0.00413 µM in assay [1] (setting [3]).
For the molecule `COCCn1c(C)nc2c3c(c(OC)cc21)-c1cccn2c(C(=O)c4cc(F)c(NC(=O)/C=C/CNC5(C)CC5)c(F)c4)cc(c12)CC[S+]3[O-]` (stereo not drawn) [Example 241], the IC50 came out at 0.877 µM in the assay with MIA PaCa-2 cells (setting [2]) and 0.031 µM in assay [1] (setting [3]).
On to `COCCn1cnc2c3c(c(C(F)(F)F)cc21)-c1cccn2c(C(=O)c4cc(F)c(NC(=O)/C=C/CN[C@H]5CCOC5)c(F)c4)cc(c12)CCN3C` (single isomer, unassigned) [Example 186], for which the figures for the IC50 (in the assay on MIA PaCa-2 cells (setting [2]); in assay [1] (setting [3])) were 0.0103 µM and 0.0167 µM, respectively.
On to `Cc1c2cc(C(F)(F)F)c3c(c2nn1C)N(C)CCc1cc(C(=O)c2cc(F)c(NC(=O)/C=C/CN[C@H]4CCOC4)c(F)c2)n2cccc-3c12` (single isomer, unassigned) [Example 154], for which the IC50 came to 0.00793 µM in the assay on MIA PaCa-2 cells (setting [2]) and 0.0102 µM in assay [1] (setting [3]).
